Source: patent publication US7732437B2, “Use of anti-histaminics for acute reduction of elevated intracranial pressure” (Janssen Pharmaceutica, NV., priority 2001, dated 2010)
Read-outs that look alike come from different tables or passages of the source. Marks after values point to notes of the source that are not given here. Blank lines part the entries; values can stand above or below the compound they belong to.

Key:
[1] = system: Sprague-Dawley rats with closed head injury; details: for effect on the lowering of the blood pressure: rat, in vivo
Text: (§1) A clinically relevant rat model for traumatic brain injury was used to test the compounds according to the invention and the commercially available compounds. […] Trauma was induced in intubated, isoflurane anesthetized (1.5% isoflurane in a mixture of 30% O2 and 70% N2O) Sprague-Dawley rats (380-400 g) stereotaxically positioned on a table mounted on 4 springs. A 400 g steel cylinder, protected with a 9 mm diameter silicon disc, was dropped on the unprotected skull from a height of either 70 cm or 50 cm (respectively ‘severe’ and ‘moderate’ head injury). The impact area was centered between bregma and lamda. ICP was recorded using a Codman microsensor probe inserted in the parietal cortex. […] The severe head injury mode was used for the evaluation of pharmacological effects immediately after trauma (screening procedure). […] In pharmacological studies, animals with a pathological ICP between 12.5 and 35 mm Hg were included. The changes in ICP, mean arterial blood pressure (MABP) and cerebral perfusion pressure CPP (=MABP—CPP) were expressed as percentage of the initial value at onset of the treatment.
(§2) On a weekly base, 4 treated groups of 3 rats were compared with 3 saline treated animals. Since conventional statistical methods require a larger amount of animals, a sequential procedure was used. Sequential methods operate in different stages. At each stage, a group of animals was selected as homogeneous as possible. Animals were randomly allocated to either drugs or saline. […] Given the biological relevant level of activity that must be detected, the expected fraction of false positive and negative results was known and fixed. A sequential two-sample grouped rank test was used.
(§3) Treatment was started at 20 min after severe head injury and involved administering a dose of 0.5 mg/kg/min during 10 minutes, followed by 0.1 mg/kg/min during 50 min.
(§4) Ranitidine was infused for 6 min at a dose of 2 mg/kg/min in the rat CHI-model after inflicting severe head injury. Solvent (NaCl+H2T) was given at the same rate. In each group, 6 rats were treated. […] The percentage of reduction are calculated as % change of the ICP recorded at the onset of the treatment and at the end of the infusion.
(§5) A number of commercially available H1- and H2-antagonists was infused for 10 min at a dose of 0.5 mg/kg/min in the rat CHI-model after inflicting severe head injury. Solvent (NaCl+H2T) was given at the same rate. In each group, 6 rats were treated.

[2] = system: non-traumatised rats; experiment: ICP and blood pressure in non-traumatized rats; type: in vivo, rat; details: i.v. 0.5 mg/kg/min 10 minutes, then 0.1 mg/kg/min 50 min; anaesthetised
Experimental: For comparison, two commercially available H2-agonists (dimaprit and impromidine) were also tested by infusion into non-traumatized rats, using a dose of 0.5 mg/kg/min for 10 minutes for dimaprit and increasing doses up to 3.75 mg/kg/hour for impromidine.
Rats The effect of Compound 2, Compound 1 and Racemate (comp. 1 and comp. 2) on ICP, MABP and CPP was tested in anaesthetised non-traumatised rats. […] Conclusion

[3] = system: Sprague-Dawley rats with closed head injury; experiment: Closed Head Injury (CHI) model, moderate head injury, treatment 24 h after trauma; type: in vivo, rat; details: for effect on saturation of brain haemoglobin with oxygen HbSat (NIRS) / effect on the redox state of CytOx (NIRS) / effect on total brain haemoglobin concentration [HbTot] (NIRS): i.v. 0.5 mg/kg.min 10 min, then 0.1 mg/kg.min 45 min, 24 h after moderate head injury
Text: The impact area was centered between bregma and lamda.
Near-infrared spectroscopy (NIRS) of the rat brain ‘in vivo’ allows to quantify non-invasively saturation of brain haemoglobin with oxygen (HbSat) and total brain haemoglobin concentration ([HbTot]). The latter is a measure for cerebral blood volume (CBV). Changes in the redox state of the mitochondrial enzyme cytochrome oxidase (CytOx), an indicator for tissue oxygenation, can also be monitored.
HbSat is not affected by compound 1 and the racemate (Comp. 1 and Comp. 2).
The effects of treatment with Compound 2 (i.v. infusion at a dose of 0.1 mg/kg.min during 30 min) at 24 h after moderate trauma were studied using different anesthetics (isoflurane, chloralhydrate, pentobarbital). When chloralhydrate (400 mg/kg i.p) is used as anesthetic, ICP decreases to 75% of initial value and MABP gradually increases to 110% of initial value (medians, n=6). […] Barbiturates also reduce the ICP and an important additional effect can be obtained with the compound.

[4] = system: rabbits with cortical cold lesion; experiment: Cold lesion-induced rise of ICP in rabbits; type: in vivo, rabbit; details: 2 mg/kg/min for 10 min, one day after cryo-lesion
Experimental: Cryo-lesions were induced in adult rabbits to obtain a pathological ICP that is caused by tissue oedema. A 8 mm stainless steel rod was placed at predetermined coordinates on the exposed skull of deeply anaesthetised rabbits and cooled for 10 min with liquid nitrogen. One day later the animals were re-anaesthetised and ICP and blood pressure continuously recorded as described for the rat. After a stabilisation period of 15 min, Compound 1 was infused for 10 min at a dose of 2 mg/kg/min. Solvent (preclinical formulation containing 10% HP-β-CD, pH 4) was given for 10 min at a rate of 2 ml/min.

[5] = system: Sprague-Dawley rats with closed head injury; experiment: Closed Head Injury (CHI) model, severe head injury; details: for CPP (%), average change over treatment period, median (95% C.I.) / ETCO2 (%), average change over treatment period, median (95% C.I.) / Heart rate(%), average change over treatment period, median (95% C.I.) / ICP (%), average change over treatment period, % change of initial value, median (95% C.I.) / MABP (%), average change over treatment period, median (95% C.I.) / Resp. rate(%), average change over treatment period, median (95% C.I.): 0.5 mg/kg/min 10 min, then 0.1 mg/kg/min 50 min, start 20 min after severe CHI, n = 10; for Effect on ICP: 0.5 mg/kg/min for 10 min, first 15 minutes, 6 rats
Text: as §1, §2, §3, §4, §5

[6] = target: T1, human histamine H1-receptor (Homo sapiens, UniProt P35367); experiment: Radioligand binding, histamine H1-receptor, competitive inhibition of [3H]Pyrilamine; details: CHO-cells transfected with the human histamine H1-receptor, read-out: H1-antagonist activity (pIC50) (converted)
T1 construct: expressed in transfected cells; host or cells: CHO cells
T1 sequence (P35367 whole entry): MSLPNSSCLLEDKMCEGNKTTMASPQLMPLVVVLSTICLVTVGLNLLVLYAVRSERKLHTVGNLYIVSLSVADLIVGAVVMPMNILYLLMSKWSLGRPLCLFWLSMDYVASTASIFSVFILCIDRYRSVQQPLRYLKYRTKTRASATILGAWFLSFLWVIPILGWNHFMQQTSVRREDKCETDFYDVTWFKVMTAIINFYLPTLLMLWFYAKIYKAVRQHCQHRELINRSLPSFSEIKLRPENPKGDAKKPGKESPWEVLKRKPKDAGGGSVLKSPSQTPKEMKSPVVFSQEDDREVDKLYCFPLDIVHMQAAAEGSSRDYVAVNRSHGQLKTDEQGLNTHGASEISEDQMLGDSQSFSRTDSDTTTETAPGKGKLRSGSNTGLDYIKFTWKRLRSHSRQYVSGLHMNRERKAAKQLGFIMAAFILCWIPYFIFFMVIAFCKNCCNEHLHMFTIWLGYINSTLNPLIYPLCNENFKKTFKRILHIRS
Experimental: Competitive inhibition of [^3H] […] Incubation was done during 150 min at 22° C.

[7] = target: T2, histamine H2-receptor (Cavia porcellus, UniProt P47747); experiment: Radioligand binding, histamine H2-receptor, guinea pig striatum cells, [125I]APT; details: [125I]APT 0.1 nM, 150 min at 22° C., read-out: H2-antagonist activity (pIC50) (converted)
T2 construct: using guinea pig striatum cells and [^125I]APT as the radioligand; from tissue; host or cells: guinea pig striatum
T2 sequence (P47747 whole entry): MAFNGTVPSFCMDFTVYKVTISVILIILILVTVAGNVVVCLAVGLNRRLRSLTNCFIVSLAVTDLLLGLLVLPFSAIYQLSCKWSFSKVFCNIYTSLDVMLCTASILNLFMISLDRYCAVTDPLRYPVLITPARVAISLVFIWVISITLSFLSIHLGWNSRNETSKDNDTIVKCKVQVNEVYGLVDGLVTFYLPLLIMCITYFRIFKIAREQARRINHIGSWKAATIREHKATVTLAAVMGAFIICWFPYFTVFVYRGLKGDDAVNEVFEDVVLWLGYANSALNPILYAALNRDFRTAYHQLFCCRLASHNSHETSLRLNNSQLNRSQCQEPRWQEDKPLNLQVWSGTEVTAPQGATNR

[8] = system: traumaticaly induced brain edema; details: prior treatment; cited from earlier work
[9] = i.v. 1 mg/kg/min during 10 min, repeated, start 20 min after severe head injury
[10] = i.v. 0.1 mg/kg.min 30 min, chloralhydrate 400 mg/kg i.p. anesthesia, n=6
[11] = i.v. 0.1 mg/kg.min 30 min, pentobarbital 60 mg/kg i.p. anesthesia, n=6
[12] = continuous infusion of 0.1 mg/kg.min

Structure (SMILES): OCCOCCN1CCN(C(c2ccccc2)c2ccc(Cl)cc2)CC1 (stereo not shown) [Hydroxyzine]
Effect on ICP ([1]; iv, 0.5 mg/kg, 0.25 h): −

IC50 [6]: 0.2 µM
IC50 [7]: 1 µM
Structure (SMILES): Cc1nc2n(C)c3ccccc3n2c(=O)c1CCN1CCC(C2c3ccccc3CCn3c2nc2ccccc23)CC1Cc1ccccc1 (single isomer, unassigned) [Compound 1, pyrimido[1,2-a]benzimidazol-4(10H)-one, 3-[2-[4-(11 ,12-dihydro-6H-benzimidazo[2,1-b][3]benzazepin-6-yl)-2-(phenylmethyl)-1-piperidinyl]ethyl]-2,10-dimethyl (E)-2-butenedioate (2:3) hydrate (1:1)]
effect on ICP, MABP and CPP in non-traumatised rats [2]: comparable with those obtained in the traumatized animals
effect on saturation of brain haemoglobin with oxygen HbSat (NIRS) [3]: not affected
effect on the redox state of CytOx (NIRS) [3]: do not have an effect
effect on total brain haemoglobin concentration [HbTot] (NIRS) [3]: do not have a significant effect
ICP after termination of infusion [4]: significant ICP reduction
ICP during infusion [4]: no immediate decrease in ICP
blood pressure during infusion [4]: blood pressure drops
CPP (%), average change over treatment period, median (95% C.I.) [5]: −1.9 (−8.9; 0.4) %
ETCO2 (%), average change over treatment period, median (95% C.I.) [5]: 2.2 (−0.8; 8.4) %
Heart rate(%), average change over treatment period, median (95% C.I.) [5]: −4.1 (−11.4; 1.9) %
ICP (%), average change over treatment period, % change of initial value, median (95% C.I.) [5]: −15.4 (−22.6; −11.5)* %
MABP (%), average change over treatment period, median (95% C.I.) [5]: −3.6 (−11.9; −1.5) %
Resp. rate(%), average change over treatment period, median (95% C.I.) [5]: 5.3 (−3.3; 13.6) %
effect on ICP during 10 min infusion (dose response) ([5]; 0.125, 0.25, 0.5, 1 and 2 mg/kg/min for 10 min): sustained dose-dependent decrease of ICP
effect on ICP in the 10 min period following the infusion ([5]; 0.125-2 mg/kg/min for 10 min): highly significant dose-dependent effect on ICP remains present
dose yielding a statistically significant larger reduction in ICP than solvent ([5]; 10 min infusion): ≥ 1 mg/kg/min
effect of repeated infusion on ICP [5, 9]: rapid reduction of ICP
effect of repeated infusion on blood pressure [5, 9]: Blood pressure drops during Compound 1 treatment but is restored again after this episode

IC50 [6]: 0.794 µM
Structure (SMILES): Cc1nc2n(C)c3ccccc3n2c(=O)c1CCN1CCC(C2c3ccccc3CCn3c2nc2ccccc23)CC1Cc1ccccc1 (single isomer, unassigned) [Compound 2, pyrimido[1,2-a]benzimidazol-4(10H)-one, 3-[2-[4-(11 ,12-dihydro-6H-benzimidazo[2,1-b][3]benzazepin-6-yl)-2-(phenylmethyl)-1-piperidinyl]ethyl]-2,10-dimethyl (E)-2-butenedioate (2:3) hydrate (1:1)]
effect on ICP, MABP and CPP in non-traumatised rats [2]: comparable with those obtained in the traumatized animals
ICP, % of initial value (median) [3, 10]: 75 % of initial value
MABP, % of initial value (median) [3, 10]: 110 % of initial value
ICP, % of initial value (median) [3, 11]: 64 % of initial value
MABP, % of initial value at the end of the infusion (median) [3, 11]: 141 % of initial value
effect on saturation of brain haemoglobin with oxygen HbSat (NIRS) [3]: small but statistically significant reduction
effect on the redox state of CytOx (NIRS) [3]: do not have an effect
effect on total brain haemoglobin concentration [HbTot] (NIRS) [3]: do not have a significant effect
CPP (%), average change over treatment period, median (95% C.I.) [5]: 24.2 (0.9; 43.6)* %
ETCO2 (%), average change over treatment period, median (95% C.I.) [5]: −4.4 (−8.9; 2.3)* %
Heart rate(%), average change over treatment period, median (95% C.I.) [5]: −9.6 (−21.8; 0.7) %
ICP (%), average change over treatment period, % change of initial value, median (95% C.I.) [5]: −15.3 (−20.0; −9.5)* %
MABP (%), average change over treatment period, median (95% C.I.) [5]: 18.8 (−2.0; 31.0)* %
Resp. rate(%), average change over treatment period, median (95% C.I.) [5]: 6.6 (−1.3; 14.6) %
increases in MABP observed [5, 12]: ≤ 20%
maximal reduction of ICP versus infusion preceded by loading dose [5, 12]: comparable
time required to obtain maximal reduction of ICP (median) [5, 12]: 30 min
median MABP increase at the end of the infusion ([5]; continuous infusion of 0.1 mg/kg.min, n=6): 9%

Structure (SMILES): COc1ccc(CN(CCN(C)C)c2ccccn2)cc1 [Pyrilamine]
increased brain water content and elevated plasma and brain histamine levels [8]: failed to reduce the increased brain water content
effect on the lowering of the blood pressure [1]: no or little effect

Structure (SMILES): CN/C(=N/CCSCc1nc[nH]c1C)NC#N [Cimetidine, cimetidine]
increased brain water content and elevated plasma and brain histamine levels [8]: prevented

Structure (SMILES): CN(C)CCC(c1ccc(Cl)cc1)c1ccccn1 (stereo not shown) [Chlorpheniramine, reference compound]
Effect on ICP ([5]; severe head injury): −
effect on the lowering of the blood pressure [1]: no or little effect

Structure (SMILES): c1cc(CN2CCCCC2)cc(OCCCNc2nc3ccccc3s2)c1 [Zolantidine, reference compound]
Effect on ICP ([5]; severe head injury): −
effect on the lowering of the blood pressure [1]: no or little effect

Structure (SMILES): Cc1nc2n(C)c3ccccc3n2c(=O)c1CCN1CCC(C2c3ccccc3CCn3c2nc2ccccc23)CC1Cc1ccccc1 (racemic) [Racemate (comp. 1 and comp. 2), pyrimido[1,2-a]benzimidazol-4(10H)-one, 3-[2-[4-(11 ,12-dihydro-6H-benzimidazo[2,1-b][3]benzazepin-6-yl)-2-(phenylmethyl)-1-piperidinyl]ethyl]-2,10-dimethyl (E)-2-butenedioate (2:3) hydrate (1:1)]
effect on ICP, MABP and CPP in non-traumatised rats [2]: comparable with those obtained in the traumatized animals
effect on saturation of brain haemoglobin with oxygen HbSat (NIRS) [3]: not affected
effect on the redox state of CytOx (NIRS) [3]: do not have an effect
effect on total brain haemoglobin concentration [HbTot] (NIRS) [3]: do not have a significant effect
CPP (%), average change over treatment period, median (95% C.I.) [5]: 7.5 (−2.4; 15.5) %
ETCO2 (%), average change over treatment period, median (95% C.I.) [5]: 2.4 (−7.8; 3.8) %
ICP (%), average change over treatment period, % change of initial value, median (95% C.I.) [5]: −19.1 (−24.9; −10.8)* %
MABP (%), average change over treatment period, median (95% C.I.) [5]: 0.6 (−5.1; 8.5) %
Resp. rate(%), average change over treatment period, median (95% C.I.) [5]: 9.6 (3.0; 14.8) %

Structure (SMILES): CN(C)CCOC(c1ccccc1)c1ccccc1 [Diphenhydramine, diphenhydramine, reference compound]
reduction in ICP ([5]; 1 mg/kg/min for 10 min, severe head injury, three rats): 34%
effect on the lowering of the blood pressure [1]: no or little effect

IC50 [7]: 3.16 µM
Structure (SMILES): CNC(=C[N+](=O)[O-])NCCSCc1ccc(CN(C)C)o1 [Ranitidine, ranitidine, reference compound]

Structure (SMILES): CC(CN1c2ccccc2Sc2ccccc21)N(C)C (stereo not shown) [Promethazine, reference compound]
Effect on ICP ([5]; severe head injury): −
effect on the lowering of the blood pressure [1]: no or little effect
